This assay concerns the target hQC (Homo sapiens, UniProt Q16769). Briefly: Inhibitor assay for glutaminyl cyclase activity (fluorometric, H-Gln-βNA / H-Gln-AMC). It counts as biochemical. The protocol:
All measurements were performed with a BioAssay Reader HTS-7000Plus for microplates (Perkin Elmer) at 30° C. QC activity was evaluated fluorometrically using H-Gln-βNA. The samples consisted of 0.2 mM fluorogenic substrate, 0.25 U pyroglutamyl aminopeptidase (Unizyme, Hørsholm, Denmark) in 0.2 M Tris/HCl, pH 8.0 containing 20 mM EDTA and an appropriately diluted aliquot of QC in a final volume of 250 μl. Excitation/emission wavelengths were 320/410 nm. The assay reactions were initiated by addition of glutaminyl cyclase. QC activity was determined from a standard curve of β-naphthylamine under assay conditions. One unit is defined as the amount of QC catalyzing the formation of 1 μmol pGlu-βNA from H-Gln-βNA per minute under the described conditions.
In a second fluorometric assay, QC activity was determined using H-Gln-AMC as substrate. Reactions were carried out at 30° C. utilizing the NOVOStar reader for microplates (BMG labtechnologies). The samples consisted of varying concentrations of the fluorogenic substrate, 0.1 U pyroglutamyl aminopeptidase (Qiagen) in 0.05 M Tris/HCl, pH 8.0 containing 5 mM EDTA and an appropriately diluted aliquot of QC in a final volume of 250 μl. Excitation/emission wavelengths were 380/460 nm. The assay reactions were initiated by addition of glutaminyl cyclase. QC activity was determined from a standard curve of 7-amino-4-methylcoumarin under assay conditions. The kinetic data were evaluated using GraFit sofware.
For inhibitor testing, the sample composition was the same as described above, except of the putative inhibitory compound added. For a rapid test of QC-inhibition, samples contained 4 mM of the respective inhibitor and a substrate concentration at 1 KM. For detailed investigations of the inhibition and determination of Ki-values, influence of the inhibitor on the auxiliary enzymes was investigated first. In every case, there was no influence on either enzyme detected, thus enabling the reliable determination of the QC inhibition. The inhibitory constant was evaluated by fitting the set of progress curves to the general equation for competitive inhibition using GraFit software.

Read-outs that look alike come from different tables or passages of the source.

For orientation: IC50 means the concentration that inhibits the measured activity by half.

hQC, sequence (Q16769 29-361): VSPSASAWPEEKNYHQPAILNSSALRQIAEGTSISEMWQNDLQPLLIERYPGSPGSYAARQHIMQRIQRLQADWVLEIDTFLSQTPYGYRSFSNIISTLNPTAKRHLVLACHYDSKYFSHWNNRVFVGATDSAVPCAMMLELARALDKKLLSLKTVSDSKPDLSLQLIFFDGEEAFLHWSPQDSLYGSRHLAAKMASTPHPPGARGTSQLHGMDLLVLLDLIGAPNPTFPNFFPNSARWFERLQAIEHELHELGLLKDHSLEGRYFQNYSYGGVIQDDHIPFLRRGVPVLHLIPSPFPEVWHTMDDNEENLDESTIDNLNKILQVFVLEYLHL

As for `CCC1=C(O)C(=O)N(CCCn2ccnc2)C1C1CC1` (stereo not drawn) [Compound 246, 5-Cyclopropyl-4-ethyl-3-hydroxy-1-(3-imidazol-1-yl-propyl)-1,5-dihydro-pyrrol-2-one], under “read-out: IC50”, the 50% inhibitory concentration (IC50) is 1300 nM.
On the same count and under the same terms, as for `O=C(C1=C(O)C(=O)N(c2ccc3[nH]cnc3c2)C1c1ccc[nH]1)C1CCCCC1` (stereo not drawn) [Compound 452, 1-(1H-Benzoimidazol-5-yl)-3-cyclohexanecarbonyl-4-hydroxy-1,2-dihydro-1′H-[2,2′]bipyrrolyl-5-one], the figure is 5080 nM; as for `CC(C)C1=C(O)C(=O)N(c2ccc3[nH]cnc3c2)C1c1c(F)ccc(Cl)c1F` (stereo not drawn) [Compound 365, 1-(1H-Benzoimidazol-5-yl)-5-(3-chloro-2,6-difluoro-phenyl)-3-hydroxy-4-isopropyl-1,5-dihydro-pyrrol-2-one], 8050 nM.
The same measure, in the same setting: as for `Cc1ccc(O)c(C2C(c3ccc(O)cc3)=C(O)C(=O)N2c2ccc3[nH]cnc3c2)c1` (stereo not drawn) [Compound 284, 1-(1H-Benzoimidazol-5-yl)-3-hydroxy-5-(2-hydroxy-5-methyl-phenyl)-4-(4-hydroxy-phenyl)-1,5-dihydro-pyrrol-2-one], the figure is 7150 nM.
On the same count and under the same terms, as for `O=C1C(O)=C(c2c[nH]c3ccccc23)C(c2ccccn2)N1CCCn1ccnc1` (stereo not drawn) [Compound 135, 3-Hydroxy-1-(3-imidazol-1-yl-propyl)-4-(1H-indol-3-yl)-5-pyridin-2-yl-1,5-dihydro-pyrrol-2-one], the figure is 40 nM; as for `O=C1C(O)=C(c2ccccc2)C(c2ccc(Cl)c(C(F)(F)F)c2)N1c1ccc2[nH]cnc2c1` (stereo not drawn) [Compound 305, 1-(1H-Benzoimidazol-5-yl)-5-(4-chloro-3-trifluoromethyl-phenyl)-3-hydroxy-4-phenyl-1,5-dihydro-pyrrol-2-one], 1750 nM; as for `CCCC1C(CC)=C(O)C(=O)N1CCCn1ccnc1` (stereo not drawn) [Compound 223, 4-Ethyl-3-hydroxy-1-(3-imidazol-1-yl-propyl)-5-propyl-1,5-dihydro-pyrrol-2-one], 2200 nM.
As for `O=C1C(O)=C(c2cccc(O)c2)C(c2ccccc2O)N1CCCn1ccnc1` (stereo not drawn) [Compound 14, 3-Hydroxy-5-(2-hydroxy-phenyl)-4-(3-hydroxy-phenyl)-1-(3-imidazol-1-yl-propyl)-1,5-dihydro-pyrrol-2-one], the IC50 (read-out: IC50) is 2200 nM.
Same read-out and setting: as for `CC1=C(O)C(=O)N(CCCn2ccnc2)C1c1ccco1` (stereo not drawn) [Compound 47, 5-(Furan-2-yl-)3-hydroxy-1-(3-imidazol-1-yl-propyl)-4-methyl-1,5-dihydro-pyrrol-2-one], the figure is 400 nM.
Consider `O=C1C(O)=C(c2ccc(O)cc2)C(C2CCC=CO2)N1CCCn1ccnc1` (stereo not drawn) [Compound 163, 5-(3,4-Dihydro-2H-pyran-2-yl)-3-hydroxy-4-(4-hydroxy-phenyl)-1-(3-imidazol-1-yl-propyl)-1,5-dihydro-pyrrol-2-one], for which the IC50 (compound from preparative synthesis, purified, read-out: IC50 hQC) was 559 nM and the IC50 (read-out: IC50) is 40 nM.
As for `CC(C)(C)C(=O)C1=C(O)C(=O)N(c2ccc3[nH]cnc3c2)C1c1cc(Br)ccc1F` (stereo not drawn) [Compound 396, 1-(1H-Benzoimidazol-5-yl)-5-(5-bromo-2-fluoro-phenyl)-4-(2,2-dimethyl-propionyl)-3-hydroxy-1,5-dihydro-pyrrol-2-one], under “read-out: IC50”, the IC50 was 4450 nM.
On the same count and under the same terms, as for `CCCC(=O)C1=C(O)C(=O)N(c2ccc3[nH]cnc3c2)C1` [Compound 362, 1-(1H-Benzoimidazol-5-yl)-4-butyryl-3-hydroxy-1,5-dihydro-pyrrol-2-one], the figure is 4720 nM; as for `CC(C)(C)C(=O)C1=C(O)C(=O)N(c2ccc3[nH]cnc3c2)C1c1nccs1` (stereo not drawn) [Compound 402, 1-(1H-Benzoimidazol-5-yl)-4-(2,2-dimethyl-propionyl)-3-hydroxy-5-thiazol-2-yl-1,5-dihydro-pyrrol-2-one], 6340 nM.
On the same count and under the same terms, as for `CC1=C(O)C(=O)N(c2ccc3[nH]cnc3c2)C1c1coc2ccccc2c1=O` (stereo not drawn) [Compound 356, 1-(1H-Benzoimidazol-5-yl)-3-hydroxy-4-methyl-5-(4-oxo-4H-chromen-3-yl)-1,5-dihydro-pyrrol-2-one], the figure is 3910 nM.

These data come from patent US8278345B2, “Inhibitors of glutaminyl cyclase” (Probiodrug AG, priority 2006, dated 2012).
